The values below are quoted from earlier work in patent publication US20130011354A1, “Compositions For Enhancing Hair Growth” (Allergan, Inc., priority 2009, published 2013).

This data set concerns eyelashes. The settings on record: Lumigan ophthalmic solution applied in the FDA approved manner for glaucoma.

Turning to `CCNC(=O)CCC/C=C\C[C@@H]1[C@@H](/C=C/[C@@H](O)CCc2ccccc2)[C@H](O)C[C@@H]1O` [Bimatoprost, cyclopentane N-ethyl heptanamide-5-cis-2-(3α-hydroxy-5-phenyl-1-trans-pentenyl)-3,5-dihydroxy, [1α,2β,3α,5α]], the growth of eyelashes result is listed as “effective to increase the growth of eyelashes”.
